Source: patent publication US20130165396A1, “Apple Skin Extracts for Treating Cardiovascular Disease” (NATIONAL RESEARCH COUNCIL OF CANADA, priority 2010, published 2013)
Marks after values point to notes of the source that are not given here.

Assays:
Assay type in all cases: biochemical
[1] = system: LDL isolated from human plasma; test: TBARS assay, AAPH-induced LDL oxidation
Method: (§1) To remove the inherent antioxidants, purchased LDL was dialyzed using Fisherbrand cellulose dialysis tubing (type T3 membrane, Thermo Fisher Scientific Inc., Ottawa, ON, Canada) against PBS containing 0.138 M NaCl and 0.0027 M KCl (pH 7.4, at 25° C.) at 4° C. for 24 hours. The buffer was changed every six hours. The dialyzed LDL was immediately used or stored at −80° C. in the dark under nitrogen and used within two to three weeks. Protein content of the dialyzed LDL was measured by the Lowry's method (Lowry et al., J. Biol. Chem., 1951, 193: […]) using bovine serum albumin as the standard.
(§2) Two oxidation induction methods were used: copper sulfate and 2,2′-azobis(2-methylpropionamidine)dihydrochloride (AAPH). For both induction systems, 100 μg/mL of final LDL protein concentration was used. LDL was oxidized at the presence of 10 μM final concentration of Cu^2+and 5 mM final concentration of AAPH separately at 37° C. for 4 h in the dark. […] Oxidation was terminated by adding a 1:1 mixture of 1 mM solution of ethylenediaminetetraacetic acid (EDTA) and 1 mM solution of butylated hydroxytoluene (BHT).
(§3) Two main constituents of TAE and oleanolic acid, which is an isomer of ursolic acid, were also used to investigate the concentration-responsiveness. The same concentrations of Cu^2+ and AAPH were used and the oxidation was terminated by a 1:1 mixture of EDTA and BHT as explained earlier under this section.
(§4) TBARS were measured according to the method of Xu et al., J. Food Sci., 2007, 72: S522-S527 with slight modifications. […] The mixture was incubated at 95° C. for 30 min to develop a pink chromogen. After cooling to room temperature tubes were centrifuged at 1500 g for 15 min and the fluorescence was measured using the FLUOstar OPTIMA plate reader (BMG Labtech Inc. Canada). Excitation and emission wavelengths used were 532 and 590 nm, respectively. TBARS activity was expressed as the percent inhibition (Equation 1) of LDL oxidation with comparison to the positive control, where F is fluorescence:
(§5) Percent inhibition (%)=100(Fpositive control−Fsample)/(Fpositive control) (1)

[2] = system: LDL isolated from human plasma; test: TBARS assay, Cu2+-induced LDL oxidation
Method: as §1, §2, §3, §4, §5

[3] = system: LDL isolated from human plasma; test: In vitro LDL oxidation inhibition, statements covering both induction systems or both product types; settings: for Pro-oxidant effect (statement): 5-50 mg L^−1
Method: as §2, §3
TBARS were measured according to the method of Xu et al., J. Food Sci., 2007, 72: S522-S527 with slight modifications. […]. The mixture was incubated at 95° C. for 30 min to develop a pink chromogen. After cooling to room temperature tubes were centrifuged at 1500 g for 15 min and the fluorescence was measured using the FLUOstar OPTIMA plate reader (BMG Labtech Inc. Canada). Excitation and emission wavelengths used were 532 and 590 nm, respectively. TBARS activity was expressed as the percent inhibition (Equation 1) of LDL oxidation with comparison to the positive control, where F is fluorescence:
The formation of hydroperoxides was measured by the lipid compatible formulation of the Peroxoquant™ quantitative peroxide assay kit. LDL oxidation was induced by Cu^2+ or AAPH and incubated for 4 hrs at 37° C. in the dark. Hydroperoxides were measured following the manufacturer's instructions. Absorbance was measured at 595 nm using FLUOstar OPTIMA plate reader (BMG Labtech, Durham, N.C., USA). Activity of hydroperoxides was expressed as the percent inhibition of LDL with comparison to the positive control (Equation 1).

[4] = 50 mg L^−1, comparison of constituent compounds and metabolites (Table 4)

SMILES | Percent inhibition of secondary LDL oxidation products, AAPH induction ([1]; 0.0005 mg L^−1) | Percent inhibition of secondary LDL oxidation products, AAPH induction ([1]; 0.001 mg L^−1) | Percent inhibition of secondary LDL oxidation products, AAPH induction ([1]; 0.005 mg L^−1) | Percent inhibition of secondary LDL oxidation products, AAPH induction ([1]; 0.01 mg L^−1) | Percent inhibition of secondary LDL oxidation products, AAPH induction ([1]; 0.5 mg L^−1) | Percent inhibition of secondary LDL oxidation products, AAPH induction ([1]; 1 mg L^−1) | Percent inhibition of secondary LDL oxidation products, AAPH induction ([1]; 5 mg L^−1) | Percent inhibition of secondary LDL oxidation products, AAPH induction ([1]; 10 mg L^−1) | Percent inhibition of secondary LDL oxidation products, AAPH induction ([1]; 25 mg L^−1) | Percent inhibition of secondary LDL oxidation products, AAPH induction ([1]; 50 mg L^−1) | Percent inhibition of secondary LDL oxidation products, AAPH induction [1, 4] | Percent inhibition of secondary LDL oxidation products, Cu induction ([2]; 0.0005 mg L^−1) | Percent inhibition of secondary LDL oxidation products, Cu induction ([2]; 0.001 mg L^−1) | Percent inhibition of secondary LDL oxidation products, Cu induction ([2]; 0.005 mg L^−1) | Percent inhibition of secondary LDL oxidation products, Cu induction ([2]; 0.01 mg L^−1) | Percent inhibition of secondary LDL oxidation products, Cu induction ([2]; 0.5 mg L^−1) | Percent inhibition of secondary LDL oxidation products, Cu induction ([2]; 1 mg L^−1) | Percent inhibition of secondary LDL oxidation products, Cu induction ([2]; 5 mg L^−1) | Percent inhibition of secondary LDL oxidation products, Cu induction ([2]; 10 mg L^−1) | Pro-oxidant effect (statement) [3] | other results
O=c1c(O[C@@H]2O[C@H](CO)[C@H](O)[C@H](O)[C@H]2O)c(-c2ccc(O)c(O)c2)oc2cc(O)cc(O)c12 [Quercetin-3-O-galactoside] | −29.51 ± 2.43^c % | −64.01 ± 6.16^c % | −35.63 ± 5.21^c % | −34.82 ± 4.98^c % | 37.82 ± 7.30^b % | 49.08 ± 3.10^b % | 88.62 ± 2.58^a % | 86.65 ± 1.82^a % | 85.58 ± 2.24^a % | 92.23 ± 1.87^a % | 141.68 ± 1.43^a % | 6.39 ± 2.33^c % | 4.88 ± 0.76^c % | 4.64 ± 1.50^c % | −6.51 ± 2.90^d % | 6.20 ± 1.77^c % | 27.61 ± 0.58^b % | 87.87 ± 0.32^a % | 89.88 ± 0.50^a % | did not show any pro-oxidant effect | Percent inhibition of secondary LDL oxidation products, Cu induction ([2]; 25 mg L^−1): 91.49 ± 0.88^a %; Percent inhibition of secondary LDL oxidation products, Cu induction ([2]; 50 mg L^−1): 92.73 ± 0.56^a %; Percent inhibition of secondary LDL oxidation products, Cu induction [2, 4]: 105.34 ± 0.30^ab %; LDL oxidation inhibition for both the induction systems ([3]; concentrations greater than 5 mg L^−1): more than 85%
O=C(O)[C@H]1O[C@@H](Oc2c(-c3ccc(O)c(O)c3)oc3cc(O)cc(O)c3c2=O)[C@H](O)[C@@H](O)[C@@H]1O [Quercetin-3-glucuronic acid] | 11.79 ± 2.10^f % | 26.29 ± 1.68^d % | 24.12 ± 1.53^de % | −1.96 ± 3.37^g % | 4.32 ± 1.18^fg % | 13.31 ± 1.79^ef % | 55.17 ± 0.33^c % | 80.74 ± 3.27^a % | 66.69 ± 2.41^b % | 72.00 ± 0.97^ab % | 74.24 ± 1.36^d % | 10.73 ± 1.68^e % | 23.06 ± 2.97^d % | 15.68 ± 2.22^e % | 14.85 ± 0.80^e % | 71.09 ± 1.34^c % | 88.59 ± 0.21^b % | 90.37 ± 2.31^b % | 94.2 ± 31.32^ab % | did not show any pro-oxidant effect | Percent inhibition of secondary LDL oxidation products, Cu induction ([2]; 25 mg L^−1): 95.24 ± 0.71^ab %; Percent inhibition of secondary LDL oxidation products, Cu induction ([2]; 50 mg L^−1): 98.64 ± 0.47^a %; Percent inhibition of secondary LDL oxidation products, Cu induction [2, 4]: 49.40 ± 2.04^d %; Protection against LDL oxidation, quercetin metabolites (statement) ([3]; 50 mg L^−1): best protection
O=c1c(O)c(-c2ccc(O)c(O)c2)oc2cc(O)cc(O)c12 [Quercetin] | 13.41 ± 0.67^e % | 28.18 ± 2.19^d % | 23.17 ± 1.48^d % | 16.71 ± 1.18^e % | 46.78 ± 0.85^c % | 66.41 ± 0.83^b % | 86.62 ± 2.00^a % | 90.20 ± 0.63^a % | 92.04 ± 0.51^a % | 91.90 ± 0.69^a % | 85.06 ± 1.23^c % | 13.97 ± 2.56^d % |  | 8.07 ± 3.33^de % | 4.62 ± 1.03^e % | 75.68 ± 1.31^c % | 85.87 ± 1.55^b % |  |  | did not show any pro-oxidant effect | Protection for AAPH induced LDL oxidation ([1]; beyond 5 mg L^−1): more than 80%; Protection for Cu2+ induced LDL oxidation ([2]; beyond 1 mg L^−1): more than 80%
